# Assay results taken from BindingDB's records for patent US20250368667 (Shanghai Qilu Pharmaceutical Research and Development Centre, 2025).
# Molecular target: T1, Ubiquitin carboxyl-terminal hydrolase 1 (Homo sapiens, UniProt O94782)
# T1 sequence (O94782 whole entry): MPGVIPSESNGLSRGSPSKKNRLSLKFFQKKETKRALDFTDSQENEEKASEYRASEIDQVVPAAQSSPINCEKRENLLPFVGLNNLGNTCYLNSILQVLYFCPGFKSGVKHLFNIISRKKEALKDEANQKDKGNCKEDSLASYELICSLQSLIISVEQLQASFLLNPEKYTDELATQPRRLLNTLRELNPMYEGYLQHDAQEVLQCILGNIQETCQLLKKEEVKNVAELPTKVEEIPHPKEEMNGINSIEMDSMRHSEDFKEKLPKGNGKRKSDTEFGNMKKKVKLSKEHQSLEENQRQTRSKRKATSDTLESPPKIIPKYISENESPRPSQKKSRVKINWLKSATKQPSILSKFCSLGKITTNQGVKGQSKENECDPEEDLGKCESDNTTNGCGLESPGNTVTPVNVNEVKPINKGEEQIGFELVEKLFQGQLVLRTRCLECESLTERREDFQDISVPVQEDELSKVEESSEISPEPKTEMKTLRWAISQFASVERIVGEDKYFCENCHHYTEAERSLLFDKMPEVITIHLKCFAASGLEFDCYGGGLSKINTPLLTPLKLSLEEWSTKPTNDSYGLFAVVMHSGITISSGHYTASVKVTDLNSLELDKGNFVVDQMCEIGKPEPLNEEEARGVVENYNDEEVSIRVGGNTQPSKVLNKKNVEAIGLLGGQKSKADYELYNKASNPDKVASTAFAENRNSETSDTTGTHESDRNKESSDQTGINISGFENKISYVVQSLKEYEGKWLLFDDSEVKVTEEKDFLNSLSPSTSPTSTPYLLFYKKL
# Assay: Experimental Method of USP1 Enzyme Activity
row,IC50,SMILES
1,16.6 nM,"COc1ncnc(C2CC2)c1-c1ncc2c3ccc(=O)[nH]c3n(Cc3ccc4c(c3)CCCn3cc(C(F)(F)F)nc3-4)c2n1 [US20250368667, Compound 159]"
2,5.49 nM,"[2H]C([2H])([2H])Oc1ncnc(C2CC2)c1-c1ncc2c3cn(C)nc3n(Cc3ccc(-c4nc(C(F)(F)F)cn4C(C)C)cc3)c2n1 [US20250368667, Compound 162]"
3,5.17 nM,"COc1ncnc(C2CC2)c1-c1ncc2c3ccc(C(C)C)nc3n(Cc3ccc4c(c3)CCCn3cc(C(F)(F)F)nc3-4)c2n1 [US20250368667, Compound 105]"
4,12.3 nM,"COc1cnn(C2CC2)c1-c1ncc2c3ccncc3n(Cc3ccc(-c4nc(C(F)(F)F)cn4C)cc3)c2n1 [US20250368667, Compound 103]"
